In article PMC7554340, “A Novel Dual-Targeted α-Helical Peptide With Potent Antifungal Activity Against Fluconazole-Resistant Candida albicans Clinical Isolates” (Frontiers in Microbiology, 2020):
No end group written: not given here.

Tests used:
[1] = tested on: C. albicans 17546; details: 17546, 48 h; for MIC: pH 7
[2] = tested on: C. tropicalis cgmcc 2.1975; assay: Antifungal activity assay (broth microdilution, MIC/MFC); type: cell-based, Candida tropicalis; details: for MFC: 50 μl of MIC wells plated on YPD agar, 28°C, 48 h, lowest concentration that completely killed fungal cells, consensus of at least three independent experiments; for MIC: cgmcc 2.1975, 48 h, pH 7
[3] = tested on: C. albicans sp3903; details: sp3903, 48 h; for MIC: pH 7
[4] = tested on: C. albicans sp3931; details: sp3931, 48 h; for MIC: pH 7
[5] = tested on: C. albicans 56214; details: 56214, 48 h; for MIC: pH 7
[6] = tested on: C. parapsilosis cgmcc 2.3989; assay: Antifungal activity assay (broth microdilution, MIC/MFC); type: cell-based, Candida parapsilosis; details: for MFC: 50 μl of MIC wells plated on YPD agar, 28°C, 48 h, lowest concentration that completely killed fungal cells, consensus of at least three independent experiments; for MIC: cgmcc 2.3989, 48 h, pH 7
[7] = tested on: C. albicans sp3902; details: sp3902, 48 h; for MIC: pH 7
[8] = tested on: C. albicans 56452; details: 56452, 48 h; for MIC: pH 7
[9] = tested on: C. albicans 14936; details: 14936, 48 h; for MIC: pH 7
[10] = tested on: C. albicans cgmcc 2.2086; assay: Antifungal activity assay (broth microdilution, MIC/MFC); type: cell-based, Candida albicans; details: for MFC: 50 μl of MIC wells plated on YPD agar, 28°C, 48 h, lowest concentration that completely killed fungal cells, consensus of at least three independent experiments; for MIC: cgmcc 2.2086, 48 h, pH 7
[11] = tested on: C. albicans 58288; details: 58288, 48 h; for MIC: pH 7
[12] = tested on: C. albicans sp3876; details: sp3876, 48 h; for MIC: pH 7
[13] = tested on: IPEC-J2 cells; details: IPEC-J2 cells, MTT, 24 h treatment, 1-64 μM; probit regression
[14] = tested on: IPEC-J2 and PMEC cells; assay: Cytotoxicity MTT assay, statements for both cell lines; details: 24 h
[15] = tested on: human erythrocytes; details: for HC10: red cells of human, 1 h
[16] = tested on: PMEC cells; details: PMEC cells, MTT, 24 h treatment, 1-64 μM; probit regression

Substance	MFC [1]	MIC [1]	MFC [2]	MIC [2]	MFC [3]	MIC [3]	MFC [4]	MIC [4]	MFC [5]	MIC [5]	MFC [6]	MIC [6]	MFC [7]	MIC [7]	MFC [8]	MIC [8]	MFC [9]	MIC [9]	MFC [10]	MIC [10]	also measured
KIGKVLLVKGIK-NH2 [KV2]	>64 µM	>64 µM	>64 µM	>64 µM	>64 µM	>64 µM	>64 µM	>64 µM	>64 µM	>64 µM	>64 µM	>64 µM	>64 µM	>64 µM	>64 µM	>64 µM	>64 µM	>64 µM	>64 µM	>64 µM	MFC [11]: >64 µM; MIC [11]: >64 µM; MFC [12]: >64 µM; MIC [12]: >64 µM
KIGKVL-NH2 [KV]	>64 µM	>64 µM	>64 µM	>64 µM	>64 µM	>64 µM	>64 µM	>64 µM	>64 µM	>64 µM	>64 µM	>64 µM	>64 µM	>64 µM	>64 µM	>64 µM	>64 µM	>64 µM	>64 µM	>64 µM	MFC [11]: >64 µM; MIC [11]: >64 µM; MFC [12]: >64 µM; MIC [12]: >64 µM
RIGRWLLWRGIRRIGRWL-NH2 [RW3]	8 µM	8 µM	2 µM	2 µM	8 µM	2 µM	4 µM	4 µM	2 µM	2 µM	4 µM	4 µM	2 µM	2 µM	4 µM	4 µM	4 µM	4 µM	4 µM	4 µM	IC50 [13]: 14.8 µM; concentration at which statistically significant cytotoxic effects started [14]: 8 µM; hemolytic activity (in words) [15]: strong hemolytic activities; HC10 [15]: 3.81 µM; IC50 [16]: 22.3 µM; MFC [11]: 8 µM; MIC [11]: 4 µM; MFC [12]: 4 µM; MIC [12]: 4 µM
RIGRVLLVRGIRRIGRVL-NH2 [RV3]	64 µM	64 µM	16 µM	8 µM	32 µM	32 µM	32 µM	32 µM	32 µM	16 µM	32 µM	16 µM	32 µM	32 µM	16 µM	16 µM	32 µM	32 µM	32 µM	32 µM	IC50 [13]: > 64 µM; cytotoxic effects (in words) ([14]; 1-64 μM): negligible cytotoxic effects; HC10 [15]: >64 µM; IC50 [16]: > 64 µM; MFC [11]: 32 µM; MIC [11]: 32 µM; MFC [12]: 32 µM; MIC [12]: 32 µM
KIGKWLLWKGIKKIGKWL-NH2 [KW3]	8 µM	8 µM	2 µM	2 µM	8 µM	4 µM	8 µM	8 µM	8 µM	4 µM	8 µM	8 µM	2 µM	2 µM	4 µM	4 µM	8 µM	8 µM	8 µM	4 µM	IC50 [13]: 6.84 µM; concentration at which statistically significant cytotoxic effects started [14]: 4 µM; hemolytic activity (in words) [15]: strong hemolytic activities; HC10 [15]: 2.69 µM; IC50 [16]: 10.3 µM; MFC [11]: 8 µM; MIC [11]: 8 µM; MFC [12]: 8 µM; MIC [12]: 8 µM
